Results as given in publication PMC10893103, “Cyclodextrin-Enabled Enantioselective Complexation Study of Cathinone Analogs” (Molecules, 2024).
Like-named read-outs stand apart in the source and are kept apart here.

Tests used:
[1] = pKa determination by CE-pH titration; format: physicochemical; conditions: 25 mM Na2HPO4 / 25 mM Na2B4O7 buffers, pH 7–10, 25 °C
Excerpt: CE is a widely used technique for the analysis of charged compounds; thus, the acid-base properties and the pKa of the analyte are crucial in CE method development. Furthermore, the protonation state of compounds has a decisive influence on both their behavior in the body and their affinity for CDs. […] However, it has the disadvantage that its reproducibility is less than that of conventional pH potentiometry; thus, the results of CE-pH titration should be confirmed by independent method (potentiometry, NMR-pH titration).
In order to determine the pKa of the five cathinone analogs, CE-pH titration was applied, in which the purpose was to register the effective mobility changes as a function of pH. As the five tested compounds contain secondary or tertiary amino groups, the pH range tested was pH 7–10, applying Na2HPO4 -Na2B4O7 buffers, where the appropriate pH was adjusted with hydrochloric acid. At a given pH, the mobility is determined by the sum of the mobility of the protonated and deprotonated forms:(1) μpH=μLxL+μHLxHL=μL+μHLKH^+/1+KH^+ where the μpH is the mobility of the compound at the given pH; μL and μHL are the mobilities of the deprotonated and protonated forms, respectively; xL and xHL are the mole fractions of the deprotonated and protonated forms, respectively; and K is the protonation constant. Plotting the μpH data against pH gives the titration curves from which the protonation constant can be calculated according to Equation (1).

[2] = pKa determination by potentiometry; format: physicochemical; conditions: aqueous solution; I = 0.15 M KCl, 25.0 °C
Method: The protonation constants were confirmed by potentiometry using a GLpKa instrument (Sirius, Forest Row, UK) equipped with a combination Ag/AgCl pH electrode. The four-parameter technique (Four PlusTM method) was used for electrode calibration. The titrations were carried out at constant ionic strength (I = 0.15 M KCl) and temperature (T = 25.0 ± 0.5 °C) under a nitrogen atmosphere. An amount of 10 ml of a ~1 mM aqueous solution of the analytes (4-MEC, MDPV) was pre-acidified to pH 2.0 with 0.5 M HCl and then titrated with 0.5 M KOH to pH 12.2. Three parallel measurements were carried out. The pKa values were calculated using the RefinementProTM software (Sirius, Forest Row, UK).

[3] = CE-pH titration; cited from earlier work
[4] = Affinity capillary electrophoresis (ACE), pH 4.5; conditions: 20 mM acetate buffer pH 4.5, 25C, 15 kV
Excerpt: The simplest way to determine the mobility is from the migration times (tmax) read from the electropherograms from which the apparent mobility could be calculated, but more accurate mobility values could be obtained by the determination with the Haarhoff–van der Linde (HVL) function based on Equation (2). (2) HVLδ(t;a0,a1,a2,a3δ)=a0/a2a3δ2πexp[−1/2(t−a1/a2)^2]/1/exp(a3δ)−1+1/2[1+erf(t−a1/2a2)] where a0 is the area of the HVL function, a1 is the position of the Gaussian component, a2 is the standard deviation of the Gaussian component, and a3δ is the peak shape distortion. The application of the HVL function is necessary in the case of accurate ACE measurements because, in several cases, the peaks are distorted due to the complex formation, which makes reading the migration times and calculating the mobility more difficult and imprecise.
The most popular technique for quantifying the analyte–ligand interaction with CE is mobility shift ACE. This technique involves varying the background electrolyte’s ligand concentrations while introducing a constant volume of the analyte and an EOF marker into the capillary. The analyte–ligand equilibrium is assumed to happen before the separation is complete, requiring fast complex formation kinetics. Typical ligand concentrations are 1–2 orders of magnitude greater than the analyte. The following equation describes the observed mobility as a function of the interaction with the following analyte ligand:(3) μ=μfff+μcfc where μ is the observed mobility, μf and μc are the electrophoretic mobility of the free and complexed analyte, and ff and fc are the free and ligand-bound fractions of the analyte.
Assuming a 1:1 binding stoichiometry, the effective mobility (μeff, calculated by correcting with the EOF marker mobility) can be expressed as (4) μeff=μfK+μc[L]/K+[L] where K is the equilibrium dissociation constant and [L] is the ligand concentration. The apparent complex stability constant (K) can be calculated using several methods, e.g., the X-reciprocal method with linear fitting, but non-linear curve fitting based on Equation (4) is more accurate. A hyperbolic growing or decline curve is obtained, and K could be determined by plotting the effective mobility as a function of the [L] (e.g., CD concentration) in the background electrolyte. The CEval software enables faster and simpler evaluation of electropherograms and further data processing to determine the stability constants of complexes with a 1:1 stoichiometric ratio [27].
During the ACE measurement series, the CD concentration is increased whilst injecting a constant amount of the cathinone derivatives and the EOF marker DMSO. The complex stability calculations were conducted with the CEval program applying the HVL function to eliminate the effect of electromigration dispersion on migration time for exact mobility and, thus complex stability constant determination. Viscosity correction and ionic strength correction were applied. […]

[5] = Affinity capillary electrophoresis (ACE), pH 7.4; conditions: 30 mM phosphate buffer pH 7.4, 25 °C, 15 kV
Method in brief: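 Mobility-shift ACE of cathinone analogues with cyclodextrins (0.25–20 mM in BGE) in 30 mM phosphate pH 7.4, 25 °C, fused-silica capillary, 15 kV, UV 215 nm, DMSO as EOF marker. Mobilities obtained by HVL peak fitting; complex stability constants corrected for viscosity and ionic strength.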

| Molecule | pKa [1] | Flephedrone–CD complex stability constant Kstab1 (first migrating enantiomer) [4] | Flephedrone–CD complex stability constant, Kstab2 (second migrating enantiomer) [4] | MDPV–CD complex stability constant Kstab1 (first migrating enantiomer) [4] | 4-MEC–CD complex stability constant, Kstab/Kstab1 (unresolved or first migrating enantiomer) [5] | Flephedrone–CD complex stability constant, Kstab/Kstab1 (unresolved or first migrating enantiomer) [5] | MDPV–CD complex stability constant, Kstab/Kstab1 (unresolved or first migrating enantiomer) [5] | Mephedrone–CD complex stability constant, Kstab/Kstab1 (unresolved or first migrating enantiomer) [5] | also measured |
| --- | --- | --- | --- | --- | --- | --- | --- | --- | --- |
| CCNC(C)C(=O)c1ccc(C)cc1 (racemic) [4-MEC, (±)-2-(ethylamino)-1-(4-methylphenyl)propan-1-one] | 8.81 ± 0.02 |  |  |  |  |  |  |  | pKa [2]: 8.85 ± 0.04 |
| CCC(NC)C(=O)c1ccc2c(c1)OCO2 (racemic) [Butylone, (±)-1-(1,3-benzodioxol-5-yl)-2-(methylamino)-butan-1-one] | 8.64 ± 0.01 |  |  |  |  |  |  |  |  |
| CNC(C)C(=O)c1ccc(F)cc1 (racemic) [Flephedrone, (±)-1-(4-fluorophenyl)-2-(methylamino)propan-1-one] | 8.56 ± 0.01 |  |  |  |  |  |  |  |  |
| CCCC(C(=O)c1ccc2c(c1)OCO2)N1CCCC1 (racemic) [MDPV, (±)-1-(benzo[d]-[1, 3]-dioxol-5-yl)-2-(pyrrolidin-1-yl)pentan-1-one] | 9 ± 0.02 |  |  |  |  |  |  |  | pKa [3]: 9.13; pKa [2]: 9.05 ± 0.04 |
| CNC(C)C(=O)c1ccc(C)cc1 (racemic) [Mephedrone, (±)-2-(methylamino)-1-(4-methylphenyl)propan-1-one] | 8.61 ± 0.01 |  |  |  |  |  |  |  | pKa [3]: 8.82 |
| CC(=O)O[C@@H]1[C@@H](OC(C)=O)[C@H]2O[C@H]3[C@H](OC(C)=O)[C@@H](OC(C)=O)[C@@H](O[C@H]4[C@H](OC(C)=O)[C@@H](OC(C)=O)[C@@H](O[C@H]5[C@H](OC(C)=O)[C@@H](OC(C)=O)[C@@H](O[C@H]6[C@H](OC(C)=O)[C@@H](OC(C)=O)[C@@H](O[C@H]7[C@H](OC(C)=O)[C@@H](OC(C)=O)[C@@H](O[C@H]8[C@H](OC(C)=O)[C@@H](OC(C)=O)[C@@H](O[C@@H]1[C@@H](COS(=O)(=O)O)O2)O[C@@H]8COS(=O)(=O)O)O[C@@H]7COS(=O)(=O)O)O[C@@H]6COS(=O)(=O)O)O[C@@H]5COS(=O)(=O)O)O[C@@H]4COS(=O)(=O)O)O[C@@H]3COS(=O)(=O)O [HDAS-β-CD, heptakis-(2,3-O-diacethyl, 6-O-sulfo)-β-CD] |  | 470 ± 40 M⁻¹ | 660 ± 55 M⁻¹ | 800 ± 50 M⁻¹ | 560 ± 40 M⁻¹ | 110 ± 37 M⁻¹ | 360 ± 55 M⁻¹ | 450 ± 60 M⁻¹ | MDPV–CD complex stability constant, Kstab2 (second migrating enantiomer) [4]: 960 ± 80 M⁻¹; 4-MEC–CD complex stability constant, Kstab2 (second migrating enantiomer) [5]: 830 ± 45 M⁻¹; Butylone–CD complex stability constant, Kstab/Kstab1 (unresolved or first migrating enantiomer) [5]: 725 ± 20 M⁻¹; Flephedrone–CD complex stability constant, Kstab2 (second migrating enantiomer) [5]: 360 ± 75 M⁻¹; MDPV–CD complex stability constant, Kstab2 (second migrating enantiomer) [5]: 340 ± 30 M⁻¹; Mephedrone–CD complex stability constant, Kstab2 (second migrating enantiomer) [5]: 730 ± 40 M⁻¹ |
| CO[C@@H]1[C@@H](OC)[C@H]2O[C@H]3[C@H](OC)[C@@H](OC)[C@@H](O[C@H]4[C@H](OC)[C@@H](OC)[C@@H](O[C@H]5[C@H](OC)[C@@H](OC)[C@@H](O[C@H]6[C@H](OC)[C@@H](OC)[C@@H](O[C@H]7[C@H](OC)[C@@H](OC)[C@@H](O[C@H]8[C@H](OC)[C@@H](OC)[C@@H](O[C@@H]1[C@@H](COS(=O)(=O)O)O2)O[C@@H]8COS(=O)(=O)O)O[C@@H]7COS(=O)(=O)O)O[C@@H]6COS(=O)(=O)O)O[C@@H]5COS(=O)(=O)O)O[C@@H]4COS(=O)(=O)O)O[C@@H]3COS(=O)(=O)O [HDMS-β-CD, heptakis-(2,3-O-dimethyl, 6-O-sulfo)-β-CD] |  | 250 ± 7 M⁻¹ | 235 ± 20 M⁻¹ | 160 ± 15 M⁻¹ |  |  | 915 ± 265 M⁻¹ |  | 4-MEC–CD complex stability constant Kstab1 (first migrating enantiomer) [4]: 170 ± 15 M⁻¹; 4-MEC–CD complex stability constant, Kstab2 (second migrating enantiomer) [4]: 190 ± 15 M⁻¹; Butylone–CD complex stability constant Kstab1 (first migrating enantiomer) [4]: 150 ± 10 M⁻¹; Butylone–CD complex stability constant, Kstab2 (second migrating enantiomer) [4]: 180 ± 12 M⁻¹; MDPV–CD complex stability constant, Kstab2 (second migrating enantiomer) [4]: 175 ± 12 M⁻¹; Mephedrone–CD complex stability constant Kstab1 (first migrating enantiomer) [4]: 205 ± 20 M⁻¹; Mephedrone–CD complex stability constant, Kstab2 (second migrating enantiomer) [4]: 205 ± 15 M⁻¹ |
| O=S(=O)(O)OC[C@H]1O[C@@H]2O[C@H]3[C@H](O)[C@@H](O)[C@@H](O[C@H]4[C@H](O)[C@@H](O)[C@@H](O[C@H]5[C@H](O)[C@@H](O)[C@@H](O[C@H]6[C@H](O)[C@@H](O)[C@@H](O[C@H]7[C@H](O)[C@@H](O)[C@@H](O[C@H]8[C@H](O)[C@@H](O)[C@@H](O[C@H]1[C@H](O)[C@H]2O)O[C@@H]8COS(=O)(=O)O)O[C@@H]7COS(=O)(=O)O)O[C@@H]6COS(=O)(=O)O)O[C@@H]5COS(=O)(=O)O)O[C@@H]4COS(=O)(=O)O)O[C@@H]3COS(=O)(=O)O [HS-β-CD, heptakis-(6-O-sulfo)-β-CD] |  | 635 ± 35 M⁻¹ | 615 ± 30 M⁻¹ | 500 ± 45 M⁻¹ |  | 580 ± 14 M⁻¹ |  |  | Flephedrone–CD complex stability constant, Kstab2 (second migrating enantiomer) [5]: 470 ± 65 M⁻¹ |
| sulfopropylated-β-CD [SP-β-CD (DS~4)] |  |  |  |  | 620 ± 65 M⁻¹ | 120 ± 12 M⁻¹ |  | 500 ± 65 M⁻¹ | Mephedrone–CD complex stability constant, Kstab2 (second migrating enantiomer) [5]: 450 ± 65 M⁻¹ |
| sulfopropylated-γ-CD [SP-γ-CD] |  |  |  |  | 70 ± 10 M⁻¹ | < 10 M⁻¹ | 140 ± 20 M⁻¹ | 45 ± 4 M⁻¹ | Butylone–CD complex stability constant, Kstab/Kstab1 (unresolved or first migrating enantiomer) [5]: 70 ± 10 M⁻¹ |
